Measured values reported in patent US11000516B2 (priority 2015, dated 2021).

Legend:
[1] = human, cited from earlier work
[2] = system: EDEN1 (clinical DENV1 isolate); experiment: Ab-mediated infection of THP-1 cells with enhancing concentration of 4G2 Ab; format: cell-based; settings: EDEN1, MOI 2, single experiment
Method: (§1) Cells were infected with DENV strains for 1 hour at 37° C. and washed once with culture media. […] The supernatants were subjected to standard plaque assay and the EC50 values were determined using the GraphPad Prism software.
(§2) NITD008, an adenosine analog inhibitor of DENV polymerase (Yin et al., 2009) was used as a positive control.

[3] = system: EDEN2 (clinical DENV2 isolate); experiment: as above; format: cell-based; settings: EDEN2, MOI 50, single experiment
Method: as §1, §2

[4] = system: S221 (mouse-adapted DENV2 strain); experiment: as above; format: cell-based; settings: S221, MOI 2, single experiment
Method: as §1, §2

[5] = system: DENV2; experiment: Survival of DENV2 infected mice in a lethal ADE model of viremia (FIG. 5B); format: in vivo
Method: Survival at day 12 was 1/8 (13%) at 10 mg/kg twice daily (BID), 5/8 (63%) at 25 mg/kg BID, 7/7 (100%) at 50 mg/kg BID, and 0/8 (0%) at 100 mg/kg once daily (QD).

[6] = system: EDEN1 (clinical DENV1 isolate); experiment: Antiviral effect in BHK-21 cells, plaque assay of supernatant 48 h pi; format: cell-based
Method: as §1, §2

[7] = system: EDEN2 (clinical DENV2 isolate); experiment: as above; format: cell-based; settings: Dengue virus, DENV2, BHK-21
Method: as §1, §2

[8] = system: S221 (mouse-adapted DENV2 strain); experiment: as above; format: cell-based; settings: Dengue virus, DENV2, BHK-21
Method: as §1, §2

[9] = system: EDEN1 (clinical DENV1 isolate); experiment: Antiviral effect in HuH-7 cells, plaque assay of supernatant 48 h pi; format: cell-based
Method: as §1, §2

[10] = system: EDEN2 (clinical DENV2 isolate); experiment: as above; format: cell-based
Method: as §1, §2

[11] = system: S221 (mouse-adapted DENV2 strain); experiment: as above; format: cell-based
Method: as §1, §2

[12] = system: S221; experiment: Lethal ADE infection model in AG129 mice (4G2 Ab pre-injection); format: in vivo
Method: (§3) AG129 mice were inoculated i.v. with EDEN1 (7×10^7 pfu), EDEN2 (1×10^8 pfu) or S221 (2×10^4 pfu) for non-lethal infection. For the ADE infection (lethal), mice were pre-injected i.p. with 50 μg (for EDEN1 and EDEN2) or 10 μg (for S221) 4G2 Ab one day prior to infection. (A) Mouse survival rate was monitored by day 10 pi. (B) Blood samples were collected on days 1-8 pi and mixed serum from each group were subjected to real-time RT-PCR to obtain the average viral genome copy numbers. (C) Serum levels of TNFα and IL-6 were measured by ELISA assay. The numbers of mice per group are 6 (EDEN1) or 5 (EDEN2 and S221).
(§4) AG129 mice were pre-injected i.p. with 50 μg (for EDEN1 and EDEN2) or 10 μg (for S221) 4G2 Ab followed by next day inoculation i.v. with EDEN1 (7×10^7 pfu), EDEN2 (1×10^8 pfu) or S221 (2×10^4 pfu). […] (A) Mouse survival rate was monitored by day 10 pi. (B) Blood samples were collected on day 1-4 pi and mixed serum from each group were subjected to real-time RT PCR to obtain the average viral genome copy numbers (left panels). […] A P value less than 0.05 was considered significant (*P<0.05). The number of mice per group is 5.
as §4, with “with” for “with 50 μg (for EDEN1 and EDEN2) or 10 μg (for S221)”, “with EDEN1,” for “with EDEN1 (7×10^7 pfu),”, “EDEN2” for “EDEN2 (1×10^8 pfu)”, “S221 as described above.” for “S221 (2×10^4 pfu).”, “on days” for “on day”, “is 6.” for “is 5.”
(§5) AG129 mouse models of clinical DENV strains, EDEN1 and EDEN2, in addition to mouse-adapted S221 strain were developed. To increase infection level in mice, high virus titer of EDEN1 (7×10^7 pfu) and EDEN2 (1×10^8 pfu) were inoculated intravenously (iv) into AG129 mice.

[13] = system: EDEN2; experiment: as above; format: in vivo
Method: as §3, §4
as §4, with “with” for “with 50 μg (for EDEN1 and EDEN2) or 10 μg (for S221)”, “with EDEN1,” for “with EDEN1 (7×10^7 pfu),”, “EDEN2” for “EDEN2 (1×10^8 pfu)”, “S221 as described above.” for “S221 (2×10^4 pfu).”, “on days” for “on day”, “is 6.” for “is 5.”
as §5

[14] = system: EDEN1; experiment: as above; format: in vivo
Method: as §3, §4
as §4, with “with” for “with 50 μg (for EDEN1 and EDEN2) or 10 μg (for S221)”, “with EDEN1,” for “with EDEN1 (7×10^7 pfu),”, “EDEN2” for “EDEN2 (1×10^8 pfu)”, “S221 as described above.” for “S221 (2×10^4 pfu).”, “on days” for “on day”, “is 6.” for “is 5.”
as §5

[15] = over the tolerated dose range; cited from earlier work
[16] = Dengue virus, DENV2, THP-1, THP-1 with 4G2 Ab

In the case of `CCCC(=O)O[C@H]1CN2CC[C@H](O)[C@@H]2[C@@H](O)[C@@H]1O` [celgosivir], the adverse event profile ([1]; CELADEN study regimen) is listed as “higher incidence of GI effects, but not increased severity”, the “maximum daily dose, total dose” value ([1]; in theory) is listed as at most 600 mg and the “maximum dose as a single dose” value ([1]; in theory) is listed as at most 400 mg. For the same compound, the EC50 ([2]; THP-1, THP-1 with 4G2 Ab) was 3200 nM, the EC50 ([2]; THP-1 with 4G2 Ab) was 3240 nM and the EC50 [3, 16] was 800 nM. It also gave an EC50 ([3]; THP-1 with 4G2 Ab) of 756 nM, an EC50 [4, 16] of 2100 nM and an EC50 ([4]; THP-1 with 4G2 Ab) of 2140 nM. For the same compound, the “Survival at day 12” value ([5]; 10 mg/kg twice daily (BID)) was 13%, the “Survival at day 12” value ([5]; 25 mg/kg BID) was 63% and the “Survival at day 12” value ([5]; 50 mg/kg BID) was 100%. The “Survival at day 12” value ([5]; 100 mg/kg once daily (QD)) was 0%, the EC50 ([6]; BHK-21, BHK-21, EDEN1, MOI 0.01) was 66 nM and the EC50 ([6]; BHK-21, BHK-21, EDEN1, MOI 0.3) was 105 nM. The EC50 [7] was 61 nM, the EC50 [8] was 119 nM and the EC50 ([9]; HuH-7, EDEN1, MOI 0.01) was 5960 nM. It also gave an EC50 ([9]; HuH-7, EDEN1, MOI 0.3) of 17400 nM, an EC50 ([9]; Huh-7, HuH-7, EDEN1, MOI 0.01) of 6000 nM and an EC50 ([9]; Huh-7, HuH-7, EDEN1, MOI 0.3) of 17400 nM. It also gave an EC50 ([10]; Dengue virus, DENV2, Huh-7, HuH-7, EDEN2, MOI 0.3) of 820 nM, an EC50 ([10]; HuH-7, EDEN2, MOI 0.3) of 824 nM and an EC50 ([11]; Dengue virus, DENV2, Huh-7, HuH-7, S221, MOI 0.3) of 5100 nM. For the same compound, the EC50 ([11]; HuH-7, S221, MOI 0.3) was 5090 nM, the “protection from death (survival)” value ([12]; S221, 10 mg/kg BID from time of infection) was “could not protect mice from death” and the “protection from lethal infection (survival)” value ([12]; S221, 50 mg/kg BID orally from time of infection) was “completely protected mice from lethal infection”. For the same compound, the “viremia reduction versus VC on day 3” value ([12]; S221, lethal ADE model, 10 mg/kg BID from day 0) was 1.4 fold, the “lower viremia level than vehicle control on day 3 pi” value ([12]; S221, lethal ADE model, 50 mg/kg BID from day 0) was 2.4 fold and the “protection from death (survival)” value ([13]; EDEN2, 10 mg/kg BID from time of infection) was 100%. For the same compound, the “viremia reduction versus VC on day 3” value ([13]; EDEN2, lethal ADE model, 10 mg/kg BID from day 0) was 3.7 fold, the “lower viremia level than vehicle control on day 3 pi” value ([13]; EDEN2, lethal ADE model, 50 mg/kg BID from day 0) was 16.5 fold and the “protection from death (survival)” value ([14]; EDEN1, 10 mg/kg BID from time of infection) was “could not protect mice from death”. The “viremia reduction versus VC on day 3” value ([14]; EDEN1, lethal ADE model, 10 mg/kg BID from day 0) was 1.8 fold, the “lower viremia level than vehicle control on day 3 pi” value ([14]; EDEN1, lethal ADE model, 50 mg/kg BID from day 0) was 4.3 fold and the pharmacokinetics dose dependence [15] was “linear with dose”.
